Read-outs that look alike come from different tables or passages of the source. One block for each compound: values may come before it.
Key:
[1] = assay type: in vivo, human; conditions: for AUC(0-inf) / AUC(0-t) / Cmax: human, plasma, 40 mg, adjusted G mean, linear mixed effects model; for AUC(0-inf): AUCinf; for AUC(0-t): AUClast
[2] = assay type: in vivo, human; conditions: for decrease in Cmax: with rabeprazole vs asciminib alone
[3] = assay type: in vitro ADME; conditions: for dissolution rate: 40 mg asciminib, 900 ml, 37°C
[4] = In vitro binding constant of asciminib and cyclodextrin; assay type: physicochemical
[5] = weak base; cited from earlier work
[6] = 40 mg asciminib b.i.d., cited from earlier work
[7] = aqueous solution; cited from earlier work
[8] = cited from earlier work
[9] = administered concomitantly with an itraconazole capsule formulation; cited from earlier work
[10] = oral, Cohort 2, asciminib ± quinidine
[11] = oral, Cohort 3, asciminib ± rifampicin
[12] = oral, Cohort 5, asciminib ± clarithromycin
[13] = po, Cohort 1, asciminib ± itraconazole (oral solution)
[14] = with clarithromycin vs asciminib alone, cohort 5
[15] = with itraconazole (oral solution) vs asciminib alone, cohort 1
[16] = with itraconazole oral solution vs asciminib alone
[17] = with quinidine vs asciminib alone, cohort 2
[18] = with rifampicin vs asciminib alone, cohort 3

AUC(0-inf) [1, 10]: 6750 ng·h/mL
AUC(0-inf) [1, 11]: 5630 ng·h/mL
AUC(0-inf) [1, 12]: 5740 ng·h/mL
AUC(0-t) [1, 10]: 6700 ng·h/mL
AUC(0-t) [1, 11]: 5400 ng·h/mL
AUC(0-t) [1, 12]: 5670 ng·h/mL
Cmax [1, 10]: 618 ng/mL
Cmax [1, 11]: 559 ng/mL
AUC(0-inf) [1, 13]: 7000 ng·h/mL
AUC(0-t) [1, 13]: 6950 ng·h/mL
Cmax [1, 13]: 679 ng/mL
increase in asciminib exposure ([1]; with clarithromycin vs asciminib alone): ~ 35%
increase in AUCinf [1, 14]: 36%
increase in AUClast [1, 14]: 37%
increase in Cmax [1, 14]: 19%
decrease in G mean of AUCinf [1, 15]: 40.2%
decrease in G mean of AUClast [1, 15]: 41.2%
increase in asciminib exposure ([1]; with itraconazole capsule vs asciminib alone): ~ 3%
decrease in asciminib Cmax [1, 16]: ~ 50%
decrease in asciminib exposure (AUC) [1, 16]: ~ 40%
decrease in asciminib Cmax ([1]; with itraconazole oral solution vs asciminib alone, listed as asciminib): 50.1%
decrease in asciminib AUC ([1]; with quinidine vs asciminib alone): 13–16%
decrease in AUCinf [1, 17]: 12.9%
decrease in AUClast [1, 17]: 16.0%
decrease in Cmax [1, 17]: 11.3%
decrease in asciminib AUC (exposure) ([1]; with rifampicin vs asciminib alone): 13–15%
decrease in AUCinf [1, 18]: 14.9%
decrease in AUClast [1, 18]: 12.7%
increase in Cmax [1, 18]: 9%
decrease in asciminib AUC (exposure) ([1]; with rifampicin vs asciminib alone, listed as asciminib): 15%
AUC(0-inf) ([2]; human, plasma, oral, 40 mg): 9850 ng·h/mL
AUC(0-t) ([2]; human, plasma, oral, 40 mg): 9200 ng·h/mL
Cmax ([2]; human, plasma, oral, 40 mg): 943 ng/mL
AUC(0-inf) ([2]; human, plasma, po, 40 mg): 9850 ng·h/mL
AUC(0-t) ([2]; human, plasma, po, 40 mg): 9200 ng·h/mL
Cmax ([2]; human, plasma, po, 40 mg): 943 ng/mL
half-life ([2]; human, plasma, po, 40 mg): 12.6 h
decrease in Cmax [2]: 9%
decrease in Cmax ([2]; listed as asciminib): ~ 9%
dissolution rate ([3]; FaSSIF V2 media alone): 87%
flux ([3]; FaSSIF V2 media alone, acceptor volume 12 ml): 1.29 µg/min
calculated flux ([3]; FaSSIF V2 media alone, membrane area 3.88 cm^2): 0.332 μg/min*cm^2
dissolution rate ([3]; FaSSIF V2 media with added cyclodextrin): 105%
calculated flux ([3]; FaSSIF V2 plus cyclodextrin): 0.071 μg/min*cm^2
flux rate ([3]; FaSSIF V2 plus cyclodextrin): 0.28 µg/min
decrease of asciminib flux through a lipid membrane ([3]; by cyclodextrin): ~ 80%
drop in binding constant ([4]; FaSSIF V2 and 0.3× FeSSIF V2 vs buffer): ~ 65 fold
binding to cyclodextrin ([4]; acidic pH of FaSSGF and high bile component concentration of FeSSIF V2): practically no binding
SMILES: O=C(Nc1ccc(OC(F)(F)Cl)cc1)c1cnc(N2CC[C@@H](O)C2)c(-c2ccn[nH]2)c1 [Asciminib]
pK a [5]: 4.0
AUC0–12 h at steady-state, G mean ([6]; Japanese subjects (n = 5), GCV% 22.8): 6450 ng·h/mL
AUC0–12 h at steady-state, G mean ([6]; non-Japanese subjects (n = 8), GCV% 39.4): 5370 ng·h/mL
pH-dependent solubility [7]: high at acidic pH and decreases with increasing pH

SMILES: C[C@H]1CN(C2COC2)CCN1c1ccc(Nc2cc(-c3ccnc(N4CCn5c(cc6c5CC(C)(C)C6)C4=O)c3CO)cn(C)c2=O)nc1 [fenebrutinib]
in vitro binding constant with cyclodextrin [8]: 200,000 /M

SMILES: CCc1cc(/C(C)=N/OCc2ccc(C3CCCCC3)c(C(F)(F)F)c2)ccc1CN1CC(C(=O)O)C1 [siponimod]
decrease in exposure [9]: 10%–24%
